Laboratory results: ChEMBL document CHEMBL4184323, “Structure-Guided Design, Synthesis, and Characterization of Next-Generation Meprin β Inhibitors” (J Med Chem, 2018)

Key:
[1] = Cmax in Sprague-Dawley rat at 10 mg/kg, ip by LC-MS analysis; format: ADME, organism-based; design: dose 10 mg/kg, route intraperitoneal; conditions: in vivo
[2] = Half life in Sprague-Dawley rat at 6 mg/kg, iv by LC-MS analysis; format: ADME, organism-based; conditions: in vivo
SH-SY5Y = experiment: Cytotoxicity in human SH-SY5Y cells assessed as cell viability at 100 uM after 24 hrs by CytoTox-ONE-based assay relative to control; format: functional; conditions: read-out: Activity
CYP2C9 = CYP2C9 (Homo sapiens, UniProt P11712); experiment: Inhibition of recombinant human CYP2C9 expressed in baculosomes assessed as residual activity at 25 uM using BOMCC substrate by fluorescence assay relative to control; format: ADME; conditions: probe BOMCC, read-out: Activity
CYP2C9, sequence (P11712 whole entry): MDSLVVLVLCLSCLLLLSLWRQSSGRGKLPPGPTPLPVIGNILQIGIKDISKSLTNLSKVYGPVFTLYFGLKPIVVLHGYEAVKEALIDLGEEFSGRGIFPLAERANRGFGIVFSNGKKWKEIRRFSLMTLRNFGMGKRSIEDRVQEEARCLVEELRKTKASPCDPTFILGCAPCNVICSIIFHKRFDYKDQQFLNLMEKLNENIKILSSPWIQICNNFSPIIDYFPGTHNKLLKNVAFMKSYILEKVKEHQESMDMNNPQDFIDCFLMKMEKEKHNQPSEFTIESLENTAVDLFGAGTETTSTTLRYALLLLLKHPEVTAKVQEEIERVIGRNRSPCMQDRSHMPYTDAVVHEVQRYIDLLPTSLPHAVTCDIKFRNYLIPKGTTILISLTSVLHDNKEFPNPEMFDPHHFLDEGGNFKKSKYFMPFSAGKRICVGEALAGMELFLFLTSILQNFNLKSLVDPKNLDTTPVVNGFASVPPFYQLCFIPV

MMP9 = MMP9 (Homo sapiens, UniProt P14780); experiment: Inhibition of human MMP9 assessed as residual activity using Mca-PLGL-(DapDnp)-AR-NH2 as substrate at 200 uM by fluorescence assay relative to control; conditions: human MMP9 enzyme, probe Mca-PLGL-(DapDnp)-AR-NH2, read-out: Activity
MMP9, sequence (P14780 whole entry): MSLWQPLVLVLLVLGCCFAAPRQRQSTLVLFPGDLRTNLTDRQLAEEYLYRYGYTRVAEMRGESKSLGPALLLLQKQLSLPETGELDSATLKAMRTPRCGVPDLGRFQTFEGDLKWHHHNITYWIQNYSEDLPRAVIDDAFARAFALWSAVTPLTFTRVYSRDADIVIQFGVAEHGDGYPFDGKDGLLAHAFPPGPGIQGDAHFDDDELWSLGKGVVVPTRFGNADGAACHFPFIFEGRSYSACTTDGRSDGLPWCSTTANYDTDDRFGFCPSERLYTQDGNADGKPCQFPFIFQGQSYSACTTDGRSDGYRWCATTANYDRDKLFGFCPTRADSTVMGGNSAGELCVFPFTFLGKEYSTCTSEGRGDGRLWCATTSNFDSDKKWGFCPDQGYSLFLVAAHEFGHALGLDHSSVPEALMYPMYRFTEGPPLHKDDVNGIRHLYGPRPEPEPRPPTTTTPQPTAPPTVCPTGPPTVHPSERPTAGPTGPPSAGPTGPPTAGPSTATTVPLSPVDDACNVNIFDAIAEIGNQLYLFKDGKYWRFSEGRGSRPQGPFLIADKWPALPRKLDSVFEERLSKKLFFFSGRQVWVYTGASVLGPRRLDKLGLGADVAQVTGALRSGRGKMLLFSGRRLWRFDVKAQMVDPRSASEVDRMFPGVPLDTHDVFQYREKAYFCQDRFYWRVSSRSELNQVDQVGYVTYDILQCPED

ADAM10 = target: T1, ADAM10 (Homo sapiens, UniProt O14672); experiment: Inhibition of human ADAM10 assessed as residual activity using Abz-LANAVRSSSR-(DapDnp)-AR-NH2 as substrate at 200 uM by fluorescence assay relative to control; conditions: human ADAM10 enzyme, probe Abz-LANAVRSSSR-(DapDnp)-AR-NH2, read-out: Activity
T1 sequence (O14672 whole entry): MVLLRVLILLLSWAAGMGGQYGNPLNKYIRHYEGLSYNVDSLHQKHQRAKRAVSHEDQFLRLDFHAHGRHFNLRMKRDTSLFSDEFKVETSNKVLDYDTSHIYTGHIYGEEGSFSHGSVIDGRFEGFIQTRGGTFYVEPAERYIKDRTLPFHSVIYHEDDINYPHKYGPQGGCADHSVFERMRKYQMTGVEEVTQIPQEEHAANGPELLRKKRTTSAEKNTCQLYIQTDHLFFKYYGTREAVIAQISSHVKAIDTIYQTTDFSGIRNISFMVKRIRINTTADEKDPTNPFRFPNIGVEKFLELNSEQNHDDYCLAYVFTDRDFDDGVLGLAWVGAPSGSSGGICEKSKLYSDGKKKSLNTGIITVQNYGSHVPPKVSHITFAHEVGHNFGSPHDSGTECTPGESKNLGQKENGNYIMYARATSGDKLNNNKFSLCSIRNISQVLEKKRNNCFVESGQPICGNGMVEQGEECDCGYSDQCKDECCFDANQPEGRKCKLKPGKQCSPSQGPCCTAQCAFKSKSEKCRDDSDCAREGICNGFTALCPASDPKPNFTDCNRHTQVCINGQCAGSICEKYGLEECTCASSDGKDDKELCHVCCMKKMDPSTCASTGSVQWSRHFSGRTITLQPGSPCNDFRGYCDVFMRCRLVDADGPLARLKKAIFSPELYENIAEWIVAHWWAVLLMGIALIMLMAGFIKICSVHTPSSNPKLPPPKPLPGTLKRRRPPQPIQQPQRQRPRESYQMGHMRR

O=C(CN(Cc1cccc(C(=O)O)c1)Cc1cccc(C(=O)O)c1)NO
Cmax [1]: 6460 ng/mL
half-life [2]: 2.5 h
viability at 100 µM (SH-SY5Y): 96%
activity at 25 µM (CYP2C9): 101%
activity at 200 µM (MMP9): 74%
activity at 200 µM (ADAM10): 93%
